Among the data in patent US20230365553A1, “COMPOUNDS AND COMPOSITIONS FOR TREATING CONDITIONS ASSOCIATED WITH STING ACTIVITY” (IFM Due, Inc., priority 2020, published 2023) are EC50 values, retold here.

T1 sequence (Q86WV6 whole entry R71H/G230A/H232R/R293Q): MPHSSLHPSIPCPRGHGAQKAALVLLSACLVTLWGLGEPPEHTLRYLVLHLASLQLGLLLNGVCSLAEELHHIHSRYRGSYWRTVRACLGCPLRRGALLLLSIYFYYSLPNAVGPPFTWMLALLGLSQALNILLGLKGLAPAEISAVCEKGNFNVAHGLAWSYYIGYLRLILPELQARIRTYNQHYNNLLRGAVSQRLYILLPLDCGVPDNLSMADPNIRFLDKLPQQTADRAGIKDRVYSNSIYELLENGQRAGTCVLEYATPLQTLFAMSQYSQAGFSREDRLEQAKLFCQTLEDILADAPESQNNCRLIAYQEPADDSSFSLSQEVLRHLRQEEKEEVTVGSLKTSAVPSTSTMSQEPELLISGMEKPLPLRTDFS

The test concerns the target T1, STING (Homo sapiens, UniProt Q86WV6, G230A/H232R/R293Q/R71H).
T1 construct: host or cells: THP1-Dual KO-IFNAR2 cells
Kind of test: STING reporter assay: luciferase reporter activity in THP1-Dual KO-IFNAR2 cells stimulated with 2′3′cGAMP. Particulars: 15 μM 2′3′cGAMP, 24h, read-out: hSTING EC50. It is filed as cell-based. The method in brief: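 THP1-Dual KO-IFNAR2 cells (2×10E6 cells/mL) were exposed to compounds at 0.0017-100 μM, then stimulated with 2′3′cGAMP (15 μM final) transfected via Lipofectamine 2000. After 24h at 37° C., secreted luciferase in supernatant was read by QUANTI-Luc luminescence; EC50 derived from concentration-response.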
In general terms: Reporter assays use an easily measured gene product as a stand-in for the process of interest.
Regarding `CCC(=O)Nc1c[nH]c2ccc(-c3cnn(-c4ccccc4)c3)cc12` [Compound 150, N-(5-(1-phenyl-1H-pyrazol-4-yl)-1H-indol-3-yl)propionamide], the 50% effective concentration (EC50) was in the range of 200 to 1000 nM.

Turning to `CC(C)(CO)C(=O)Nc1c[nH]c2ccc(-c3cnn(-c4ccc(C(F)(F)F)cc4)c3)cc12` [Compound 201, 3-hydroxy-2,2-dimethyl-N-(5-(1-(4-(trifluoromethyl)phenyl)-1H-pyrazol-4-yl)-1H-indol-3-yl)propanamide], the concentration giving a half-maximal response (EC50) lay in the range of 1000 to 5000 nM. As for `O=C(Nc1c[nH]c2ccc(-c3cnn(-c4ccc(C(F)(F)F)cc4)c3)cc12)c1cnoc1` [Compound 277, N-(5-(1-(4-(trifluoromethyl)phenyl)-1H-pyrazol-4-yl)-1H-indol-3-yl)isoxazole-4-carboxamide], the figure is 5000 to 100000 nM. For `CC1(C(=O)Nc2c[nH]c3ccc(-c4cnn(-c5ccc(C(F)(F)F)cc5)c4)cc23)CCOCC1` [Compound 222, 4-methyl-N-(5-(1-(4-(trifluoromethyl)phenyl)-1H-pyrazol-4-yl)-1H-indol-3-yl)tetrahydro-2H-pyran-4-carboxamide], the EC50 is 1000 to 5000 nM. As for `O=C(Nc1c[nH]c2ccc(-c3cnn(-c4ccc(C(F)(F)F)cc4)c3)cc12)c1ncc[nH]1` [Compound 260, N-(5-(1-(4-(trifluoromethyl)phenyl)-1H-pyrazol-4-yl)-1H-indol-3-yl)-1H-imidazole-2-carboxamide], the figure is 5000 to 100000 nM; as for `CCc1ccc(-n2cc(-c3ccc4[nH]cc(NC(=O)C(O)C(F)(F)F)c4c3)cn2)cc1` (stereo not shown) [Compound 166, N-(5-(1-(4-ethylphenyl)-1H-pyrazol-4-yl)-1H-indol-3-yl)-3,3,3-trifluoro-2-hydroxypropanamide], 1000 to 5000 nM; as for `O=C(Nc1c[nH]c2ccc(-c3cnn(-c4ccc(C(F)(F)F)cc4)c3)cc12)C1CC(F)C1` (stereo not shown) [Compound 190, 3-fluoro-N-(5-(1-(4-(trifluoromethyl)phenyl)-1H-pyrazol-4-yl)-1H-indol-3-yl)cyclobutane-1-carboxamide], 5000 to 100000 nM.

As for `O=C(Nc1c[nH]c2ccc(-c3cnn(-c4ccc(C(F)(F)F)cc4)c3)cc12)C1(F)CCOCC1` [Compound 233, 4-fluoro-N-(5-(1-(4-(trifluoromethyl)phenyl)-1H-pyrazol-4-yl)-1H-indol-3-yl)tetrahydro-2H-pyran-4-carboxamide], the concentration for a half-maximal effect (EC50) lay in the range of 200 to 1000 nM. To `N#CC1(C(=O)Nc2c[nH]c3ccc(-c4cnn(-c5ccc(C(F)(F)F)cc5)c4)cc23)CC1` [Compound 235, 1-cyano-N-(5-(1-(4-(trifluoromethyl)phenyl)-1H-pyrazol-4-yl)-1H-indol-3-yl)cyclopropane-1-carboxamide] belongs 1000 to 5000 nM; to `CCc1ccc(-n2cc(-c3ccc4[nH]cc(NC(=O)CN(C)C)c4c3)cn2)cc1` [Compound 125, 2-(dimethylamino)-N-(5-(1-(4-ethylphenyl)-1H-pyrazol-4-yl)-1H-indol-3-yl)acetamide], 5000 to 100000 nM. To `CN1CCC(C(=O)Nc2c[nH]c3ccc(-c4cnn(-c5ccc(C(F)(F)F)cc5)c4)cc23)CC1=O` (stereo not shown) [Compound 231, 1-methyl-2-oxo-N-(5-(1-(4-(trifluoromethyl)phenyl)-1H-pyrazol-4-yl)-1H-indol-3-yl)piperidine-4-carboxamide] belongs 1000 to 5000 nM; to `CN1CC(C(=O)Nc2c[nH]c3ccc(-c4cnn(-c5ccc(C(F)(F)F)cc5)c4)cc23)CC1=O` (stereo not shown) [Compound 249, 1-methyl-5-oxo-N-(5-(1-(4-(trifluoromethyl)phenyl)-1H-pyrazol-4-yl)-1H-indol-3-yl)pyrrolidine-3-carboxamide], 1000 to 5000 nM; to `COCCOCC(=O)Nc1c[nH]c2ccc(-c3cnn(-c4ccc(C(F)(F)F)cc4)c3)cc12` [Compound 217, 2-(2-methoxyethoxy)-N-(5-(1-(4-(trifluoromethyl)phenyl)-1H-pyrazol-4-yl)-1H-indol-3-yl)acetamide], 200 to 1000 nM. `O=C1CC(C(=O)Nc2c[nH]c3ccc(-c4cnn(-c5ccc(C(F)(F)F)cc5)c4)cc23)CCN1` (stereo not shown) [Compound 219, 2-oxo-N-(5-(1-(4-(trifluoromethyl)phenyl)-1H-pyrazol-4-yl)-1H-indol-3-yl)piperidine-4-carboxamide]: the concentration giving a half-maximal response (EC50) was 1000 to 5000 nM. To `O=C(Nc1c[nH]c2ccc(-c3cnn(-c4ccc(C(F)(F)F)cc4)c3)cc12)C1CN(CC(F)(F)F)C1` [Compound 247, 1-(2,2,2-trifluoroethyl)-N-(5-(1-(4-(trifluoromethyl)phenyl)-1H-pyrazol-4-yl)-1H-indol-3-yl)azetidine-3-carboxamide] belongs 200 to 1000 nM; to `O=C(Nc1c[nH]c2ccc(-c3cnn(-c4ccc(C(F)(F)F)cc4)c3)cc12)c1cnco1` [Compound 263, N-(5-(1-(4-(trifluoromethyl)phenyl)-1H-pyrazol-4-yl)-1H-indol-3-yl)oxazole-5-carboxamide], 200 to 1000 nM; to `CS(=O)(=O)CCC(=O)Nc1c[nH]c2ccc(-c3cnn(-c4ccc(C(F)(F)F)cc4)c3)cc12` [Compound 240, 3-(methylsulfonyl)-N-(5-(1-(4-(trifluoromethyl)phenyl)-1H-pyrazol-4-yl)-1H-indol-3-yl)propanamide], 200 to 1000 nM. As for `CCc1ccc(-n2cc(-c3ccc4[nH]cc(NC(=O)CO)c4c3)cn2)cc1` [Compound 126, N-(5-(1-(4-ethylphenyl)-1H-pyrazol-4-yl)-1H-indol-3-yl)-2-hydroxyacetamide], the EC50 lay in the range of 200 to 1000 nM. As for `CCC(=O)Nc1c[nH]c2ccc(-c3cnn(-c4ccc(CC(F)(F)F)cc4)c3)cc12` [Compound 102, N-(5-(1-(4-(2,2,2-trifluoroethyl)phenyl)-1H-pyrazol-4-yl)-1H-indol-3-yl)propionamide], the figure is 200 to 1000 nM; as for `CCc1ccc(-n2cc(-c3ccc4[nH]cc(NC(=O)C5CC(=O)N5)c4c3)cn2)cc1` (stereo not shown) [Compound 121, N-(5-(1-(4-ethylphenyl)-1H-pyrazol-4-yl)-1H-indol-3-yl)-4-oxoazetidine-2-carboxamide], 200 to 1000 nM. As for `O=C(CNCC(F)(F)F)Nc1c[nH]c2ccc(-c3cnn(-c4ccc(C(F)(F)F)cc4)c3)cc12` [Compound 183, 2-((2,2,2-trifluoroethyl)amino)-N-(5-(1-(4-(trifluoromethyl)phenyl)-1H-pyrazol-4-yl)-1H-indol-3-yl)acetamide], the figure is 1000 to 5000 nM; as for `CCc1ccc(-n2cc(-c3ccc4[nH]cc(NC(=O)C5CCCCO5)c4c3)cn2)cc1` (stereo not shown) [Compound 165, N-(5-(1-(4-ethylphenyl)-1H-pyrazol-4-yl)-1H-indol-3-yl)tetrahydro-2H-pyran-2-carboxamide], 200 to 1000 nM. As for `CC(=O)N(C)c1c[nH]c2ccc(-c3cnn(-c4ccc(C(F)(F)F)cc4)c3)cc12` [Compound 246, N-methyl-N-(5-(1-(4-(trifluoromethyl)phenyl)-1H-pyrazol-4-yl)-1H-indol-3-yl)acetamide], the figure is 5000 to 100000 nM; as for `NC1(C(=O)Nc2c[nH]c3ccc(-c4cnn(-c5ccc(C(F)(F)F)cc5)c4)cc23)CC(F)(F)C1` [Compound 185, 1-amino-3,3-difluoro-N-(5-(1-(4-(trifluoromethyl)phenyl)-1H-pyrazol-4-yl)-1H-indol-3-yl)cyclobutane-1-carboxamide], 5000 to 100000 nM.

For `O=C(Nc1c[nH]c2ccc(-c3cnn(-c4ccc(C(F)(F)F)cc4)c3)cc12)C(CO)C(F)(F)F` (stereo not shown) [Compound 196, 3,3,3-trifluoro-2-(hydroxymethyl)-N-(5-(1-(4-(trifluoromethyl)phenyl)-1H-pyrazol-4-yl)-1H-indol-3-yl)propanamide], the EC50 is 1000 to 5000 nM. As for `CCC(=O)Nc1c[nH]c2ccc(-c3cnn(-c4ccccn4)c3)cc12` [Compound 138, N-(5-(1-(pyridin-2-yl)-1H-pyrazol-4-yl)-1H-indol-3-yl)propionamide], the figure is 5000 to 100000 nM; as for `CC(=O)Nc1c[nH]c2ccc(-c3cnn(-c4ccc(C(F)(F)F)cc4Cl)c3)cc12` [Compound 172, N-(5-(1-(2-chloro-4-(trifluoromethyl)phenyl)-1H-pyrazol-4-yl)-1H-indol-3-yl)acetamide], 40 to 200 nM.

`CCc1ccc(-n2cc(-c3ccc4[nH]cc(NC(=O)C(C)NC(=O)OC(C)(C)C)c4c3)cn2)cc1` (stereo not shown) [Compound 114, tert-butyl (1-((5-(1-(4-ethylphenyl)-1H-pyrazol-4-yl)-1H-indol-3-yl)amino)-1-oxopropan-2-yl)carbamate]: the EC50 is 200 to 1000 nM. As for `CCC(=O)Nc1c[nH]c2ccc(-c3cnn(-c4ccc(C(F)(F)F)c(COC)c4)c3)cc12` [Compound 256, N-(5-(1-(3-(methoxymethyl)-4-(trifluoromethyl)phenyl)-1H-pyrazol-4-yl)-1H-indol-3-yl)propionamide], the figure is 1000 to 5000 nM. Consider `CCC(=O)Nc1c[nH]c2ccc(-c3cnn(C4CCCC4)c3)cc12` [Compound 137, N-(5-(1-cyclopentyl-1H-pyrazol-4-yl)-1H-indol-3-yl)propionamide], for which the EC50 fell in the range of 5000 to 100000 nM. `CC(=O)NCC(C)(C)C(=O)Nc1c[nH]c2ccc(-c3cnn(-c4ccc(C(F)(F)F)cc4)c3)cc12` [Compound 208, 3-acetamido-2,2-dimethyl-N-(5-(1-(4-(trifluoromethyl)phenyl)-1H-pyrazol-4-yl)-1H-indol-3-yl)propanamide]: the EC50 was in the range of 1000 to 5000 nM. To `CCC(=O)Nc1c[nH]c2ccc(-c3cnn(-c4ccc(C(F)(F)F)c(C)c4)c3)cc12` [Compound 109, N-(5-(1-(3-methyl-4-(trifluoromethyl)phenyl)-1H-pyrazol-4-yl)-1H-indol-3-yl)propionamide] belongs 200 to 1000 nM; to `CCC(=O)Nc1c[nH]c2ccc(-c3cnn(-c4ccc(OCC(F)(F)F)cc4)c3)cc12` [Compound 110, N-(5-(1-(4-(2,2,2-trifluoroethoxy)phenyl)-1H-pyrazol-4-yl)-1H-indol-3-yl)propionamide], 40 to 200 nM. Take `CCC(=O)Nc1c[nH]c2ccc(C3=CCN(c4ccccn4)CC3)cc12` [Compound 140, N-(5-(3,6-dihydro-2H-[1,2′-bipyridin]-4-yl)-1H-indol-3-yl)propionamide]: the EC50 was 5000 to 100000 nM.

For orientation: EC50 means the midpoint of the concentration-response curve.
